The source of these data is paper PMC12637021, “Talin–tensin3 interactions regulate fibrillar adhesion formation and tensin3 phase separation” (The Journal of Cell Biology, 2025).

Several values for one entry are separate records, joined by “and”; a condition that tells them apart may be missing. Equal entries are not always repeated. Where a SMILES comes first, the peptide text is derived from it.

Assay [1] addresses T1, talin R3 domain (residues 787–911) (Mus musculus, UniProt P26039).
T1 construct: recombinant talin R3 domain (residues 787–911); hexahistidine-tag followed by TEV protease cleavage site (N); made in house; host or cells: E. coli BL21
Briefly: ITC, tensin3 TBS peptide binding to talin R3. Particulars: ITC 25°C, pH 6.5; mean ± SD from triplicate measurements. From the text: (§1) Figure 3. Structural characterization of the multidomain talin–tensin3 interaction. (A) Representative images of NIH3T3 cells co-expressing GFP-R11DD-cBAK WT or carrying K2024E, K2031E, or both (K2024E+K2031E) with mCh-IDR. (B) Mitochondrial pulldown experiment using the same constructs as in A. (C) AlphaFold3 model of the talin R8–tensin3 TBS complex. TBS (orange) was predicted to engage the α2-α3 face of the R8 bundle (cyan). K1500 and R1510 (brown) are highlighted on the […]. (D) NIH3T3 cells co-expressing GFP-R7R8-cBAK WT or carrying K1500E or R1510E with mCh-IDR. (E) Mitochondrial pulldown experiment using constructs as in D. (F) Cells co-expressing mCh-TNS3-WT-cBAK and GFP-TLN1 constructs (R8m, K1500E; R11m, K2024E+K2031E). mCh-TNS3-L702E-cBAK was used as a negative control. (G and H) Overlay ^1H-^15N HSQC spectra of ^15N-labeled talin R3 (G) and talin R4 (H), at a concentration of 200 µM, in the absence (blue) and presence (red) of tensin3 TBS peptide at a molar ratio of 1:2. Magnified views in the right panels show the cross-peaks corresponding to the residues K869 and V871 of talin R3 (G) and the residues S927 and G969 of talin R4 (H), illustrating the progressive chemical shift changes at peptide molar ratios of 0 (blue), 0.25 (orange), 0.5 (green), 1.0 (coral), and 2.0 (red). The HSQC spectra of R3 and R4 were recorded at 700 and 800 MHz, respectively. (I and J) Mapping of the residue-specific CSD (related to Fig. S2, H and I) on the AlphaFold3 models of talin R3 (I) and R4 (J) colored in cyan, respectively, in complex with tensin3 TBS (orange). […]
(§2) Recombinant mouse talin1 R3 and R7R8 domains were expressed using the pET-151/D-TOPO vector. […] Final protein concentrations were determined by measuring absorbance at 280 nm using a NanoDrop spectrophotometer (Thermo Fisher Scientific), based on calculated extinction coefficients.
(§3) ITC experiments were performed using a MicroCal PEAQ-ITC automated instrument (Malvern Panalytical) at 25°C. […] Data were analyzed using the one-site binding model implemented in MicroCal PEAQ-ITC analysis software (Malvern Panalytical).

Assay [2] deals with T2, talin R4 domain (residues 913–1,044) (Mus musculus, UniProt P26039).
T2 construct: R4 domain (residues 913–1,044); hexahistidine-tag followed by TEV protease cleavage site (N); made in house; host or cells: E. coli BL21
Nature of the assay: ITC, tensin3 TBS peptide binding to talin R4. The settings on record: ITC 25°C, pH 6.5; mean ± SD from triplicate measurements.
Text: as §1, §2, §3

Assay [3] addresses T2, talin R4 domain (residues 913–1,044). Briefly: 1H-15N HSQC NMR titration of talin R4. It is filed as binding. The procedure: (§4) Recombinant mouse talin1 R3 and R7R8 domains were expressed using the pET-151/D-TOPO vector. The recombinant mouse talin R4 domain was expressed using the pET-28a(+)vectors. Both vectors include an N-terminal hexahistidine-tag followed by a tobacco etch virus protease cleavage site. Proteins were overexpressed in BL21 cells and purified via nickel-affinity chromatography with a single-step elution at 250 mM imidazole concentration. For NMR studies, uniformly ^15N-labeled proteins were produced by growing cells in 2xM9 minimal medium supplemented with 1 g/Liter ^15N-ammonium chloride (^15NH4Cl) as the sole nitrogen source. Following purification, proteins were concentrated and buffer-exchanged using PD-10 desalting columns (Cytiva). Final protein concentrations were determined by measuring absorbance at 280 nm using a NanoDrop spectrophotometer (Thermo Fisher Scientific), based on calculated extinction coefficients.
(§5) NMR spectra were acquired on Bruker Neo 700 MHz (for talin R3) or 800 MHz (for talin R4 and R7R8) spectrometers equipped with TCI cryoprobes. All experiments were performed at 298 K using 200 µM of uniformly ^15N-labeled talin R3, R4, or R7R8 in 20 mM sodium phosphate buffer (pH 6.4) containing 50 mM NaCl, 0.1 mM tris(2-carboxyethyl)phosphine (TCEP), and 5% (vol/vol) D2O. For titration experiments, synthetic tensin3 TBS peptide (aa 692–718) was added at final concentrations of 50, 100, 200, 400, and 800 µM. NMR data were processed using TopSpin (Bruker) and analyzed with Collaborative Computational Project for NMR software AnalysisAssign (version 3.2). HSQC spectra were measured using a standard Bruker pulse sequence. HSQC signals of the free proteins were assigned using the available backbone chemical shift data from the Biological Magnetic Resonance Data Bank (BMRB entries; R3: 17332; R4: 18313). The signals of the bound state were assigned by following the chemical shift changes with the increased concentrations of the peptide. Residue-specific chemical shift differences were calculated using HSQC spectra in the presence of 400 µM tensin3 TBS peptide.

For a further assay, the target named is talin R11. The settings on record: previous observation; ref Atherton et al., 2022; read-out: Kd, talin R11 with tensin3 TBS; cited from earlier work.
In assay [4] the target is T3, talin R7R8 region (residues 1,359–1,659) (Mus musculus, UniProt P26039).
T3 construct: R7R8 region (residues 1,359–1,659); hexahistidine-tag followed by TEV protease cleavage site (N); made in house; host or cells: E. coli BL21
Nature of the assay: 1H-15N HSQC NMR titration of talin R7R8. The class given is binding. The settings on record: intermediate exchange. The procedure: as §4, with “Following purification, proteins were concentrated and buffer-exchanged using PD-10 desalting columns (Cytiva).” left out
NMR spectra were acquired on Bruker Neo 700 MHz (for talin R3) or 800 MHz (for talin R4 and R7R8) spectrometers equipped with TCI cryoprobes. […] NMR data were processed using TopSpin (Bruker) and analyzed with Collaborative Computational Project for NMR software AnalysisAssign (version 3.2). HSQC spectra were measured using a standard Bruker pulse sequence. […] Residue-specific chemical shift differences were calculated using HSQC spectra in the presence of 400 µM tensin3 TBS peptide.

Assay [5] deals with T3, talin R7R8 region (residues 1,359–1,659). Briefly: ITC, tensin3 TBS peptide binding to talin R7R8. The settings on record: ITC 25°C, pH 6.5; mean ± SD from triplicate measurements.
Text: as §1, §2, §3

For assay [6], the target named is T1, talin R3 domain (residues 787–911). Briefly: 1H-15N HSQC NMR titration of talin R3. The class given is binding. As to the method: as §4, §5
Where [7] appears, read: 1:2 molar ratio (400 µM TBS peptide), threshold 5× SD.

T2 sequence (P26039 913-1044 limits assumed): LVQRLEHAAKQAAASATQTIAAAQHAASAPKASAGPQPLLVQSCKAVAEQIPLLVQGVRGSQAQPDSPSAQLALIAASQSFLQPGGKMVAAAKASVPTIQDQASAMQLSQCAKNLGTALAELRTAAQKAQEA
T3 sequence (P26039 1359-1659 limits assumed): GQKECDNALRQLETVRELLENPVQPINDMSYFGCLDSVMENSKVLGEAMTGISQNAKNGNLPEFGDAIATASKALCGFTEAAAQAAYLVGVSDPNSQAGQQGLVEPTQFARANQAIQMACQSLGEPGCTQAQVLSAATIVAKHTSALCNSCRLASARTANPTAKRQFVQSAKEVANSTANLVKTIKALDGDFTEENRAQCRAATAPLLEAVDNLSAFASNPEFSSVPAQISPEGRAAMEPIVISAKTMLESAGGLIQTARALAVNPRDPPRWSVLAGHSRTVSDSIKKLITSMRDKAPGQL
T1 sequence (P26039 787-911): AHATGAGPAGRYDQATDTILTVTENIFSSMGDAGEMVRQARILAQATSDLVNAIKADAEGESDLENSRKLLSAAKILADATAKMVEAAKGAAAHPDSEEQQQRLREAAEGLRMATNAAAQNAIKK

In the case of `CC[C@H](C)[C@H](NC(=O)[C@H](CO)NC(=O)[C@H](CCC(N)=O)NC(=O)[C@H](CC(=O)O)NC(=O)[C@@H](NC(=O)[C@H](CC(=O)O)NC(=O)[C@H](CC(C)C)NC(=O)[C@@H](N)[C@@H](C)O)[C@@H](C)CC)C(=O)N[C@@H](CCC(=O)O)C(=O)N[C@@H](CCC(N)=O)C(=O)N[C@@H](CC(C)C)C(=O)N[C@@H](CC(N)=O)C(=O)N[C@@H](CCCNC(=N)N)C(=O)N[C@@H](CC(C)C)C(=O)N[C@H](C(=O)N[C@@H](CC(C)C)C(=O)N[C@@H](CCC(=O)O)C(=O)N[C@@H](CC(C)C)C(=O)N[C@@H](CC(=O)O)C(=O)N1CCC[C@H]1C(=O)N[C@H](C(=O)N[C@@H](Cc1ccccc1)C(=O)N[C@@H](CCC(=O)O)C(=O)N1CCC[C@H]1C(=O)N[C@H](C(=O)N1CCC[C@H]1C(=O)N[C@H](C(=O)O)[C@@H](C)O)[C@@H](C)CC)[C@@H](C)O)[C@@H](C)CC` [tensin3 TBS] (H-TLDIDQSIEQLNRLILELDPTFEPIPT-OH; N-terminus and C-terminus assumed), in assay [1], the “Gibbs free energy (ΔG), R3-TBS” value was -6.41 ± 0.0478 kcal/mol; the “enthalpy change (ΔH), R3-TBS” value was 1.68 ± 0.148 kcal/mol and 1.68 ± 0.14 kcal/mol; the “entropy contribution (−TΔS), R3-TBS” value is -8.08 ± 0.0956 kcal/mol. Besides, in assay [2], the “Gibbs free energy (ΔG), R4-TBS” value was -6.29 ± 0.086 kcal/mol; the “enthalpy change (ΔH), R4-TBS” value was 2.94 ± 0.586 kcal/mol and 2.94 ± 0.574 kcal/mol; the “entropy contribution (−TΔS), R4-TBS” value is -9.32 ± 0.626 kcal/mol. For the same compound, the “HSQC spectral changes on addition of TBS, R4” value in assay [3] (200 µM 15N-talin R4, 298 K, 20 mM sodium phosphate pH 6.4, 50 mM NaCl, 0.1 mM TCEP, 5% D2O, 800 MHz, molar ratio up to 1:2) is given as “substantial changes”. In addition, the “location of significant chemical shift perturbations, R4” value in assay [3] (setting [7]) was “α1 and α2 helices of R4”. In addition, the “Kd range suggested by exchange rate in NMR, R4” value in assay [3] (intermediate exchange) is listed as “micromolar (µM) range”. Moreover, the dissociation constant (Kd) on talin R11 was 17 µM. In addition, the “Kd range suggested by exchange rate in NMR, R7R8” value in assay [4] is “micromolar (µM) range”. For the same compound, in assay [5], the “Gibbs free energy (ΔG), R7R8-TBS” value was -6.549 ± 0.0406 kcal/mol; the “enthalpy change (ΔH), R7R8-TBS” value is 10.21 ± 0.492 kcal/mol; the “entropy contribution (−TΔS), R7R8-TBS” value was -16.75 ± 0.464 kcal/mol. The “HSQC spectral changes on addition of TBS, R3” value in assay [6] (200 µM 15N-talin R3, 298 K, 20 mM sodium phosphate pH 6.4, 50 mM NaCl, 0.1 mM TCEP, 5% D2O, 700 MHz, molar ratio up to 1:2) was “substantial changes”. Further, in assay [6] (setting [7]), the “location of significant chemical shift perturbations, R3” value was “α2 and α3 helices of R3”. The “Kd range suggested by exchange rate in NMR, R3” value in assay [6] (intermediate exchange) is “micromolar (µM) range”.
